Consider ten compounds from ChEMBL document CHEMBL1201862, “PubChem BioAssay data set” (2004).

What all share (assay): growth of human tumour cells (NCI), 48 h
Assay [1] deals with MDA-MB-231.
Assay [2] relates to MOLT-4.
Assay [3] has as its system HT-29.
The subject of assay [4] is M14.
Assay [5] relates to SF-295.
In assay [6] the test system is SN12C.
Assay [7] relates to 786-0.
For assay [8], the system named is PC-3.
Assay [9] has as its system SR.
Assay [10] has as its system SNB-75.
The subject of assay [11] is KM12.
Assay [12] concerns HOP-62.
Assay [13] has as its system OVCAR-4.
Assay [14] relates to SF-268.
Assay [15] deals with DU-145.
The test system of assay [16] is NCI-H23.
In assay [17] the test system is OVCAR-8.
For assay [18], the system named is SK-OV-3.
In assay [19] the test system is RPMI-8226.
Assay [20] has as its system SF-539.

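These data come from cells grown in 96-well plates and exposed to compound for 48 hours at five concentrations. GI50 marks 50% less growth.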 The source made the active and inactive calls. No stated cut-off is given here; in the data, active = GI50 up to about 1.1 µM and inactive = higher.

On to `O=C(N/N=C\c1cccc(O)c1)c1ccncc1`, for which the GI50 in [1], in assay [2], in assay [3], in [4], in [5] and in [6] was > 100 µM (inactive) throughout. The GI50 in [7], in assay [8], in assay [9], in assay [10], in assay [11] and in [12] was > 100 µM (inactive) in each case. Moreover, the GI50 in assay [13], in [14], in assay [15], in assay [16] and in assay [17] was > 100 µM (inactive) throughout.

For `Cn1c(=O)c2c(nc3n2CCCC(=O)N3CCCCl)n(C)c1=O`, the GI50 in assay [1], in assay [2], in assay [3], in assay [4], in assay [5] and in assay [6] was > 100 µM (inactive) throughout. In addition, the GI50 in [7], in assay [8], in assay [9], in assay [10], in [11] and in assay [12] was > 100 µM (inactive) in each case. For the same compound, the GI50 in assay [13], in assay [18], in assay [14], in assay [15], in [16] and in assay [19] was > 100 µM (inactive) each time. Further, in assay [17], the GI50 is > 100 µM (inactive).

Turning to `NC(=O)N/N=C1/CCC(O)CC1CC(=O)O` (configuration not stated), the GI50 in [1], in assay [2], in assay [20], in assay [3], in assay [4] and in assay [5] was > 100 µM (inactive) throughout. The GI50 in [6] is > 100 µM (inactive); in assay [7] it was > 100 µM (inactive); in [8], > 100 µM (inactive); in assay [9] it was 30.3 µM (inactive); in assay [11], > 100 µM (inactive); in assay [12], > 100 µM (inactive). Also, the GI50 in assay [13], in assay [18], in [14], in assay [15], in assay [16] and in [19] was > 100 µM (inactive) each time. Further, the GI50 in assay [17] is > 100 µM (inactive).

With `Cc1ccc(C2=Nn3c(nc4sc(-c5ccccc5)cc4c3=O)SC2)cc1`, the GI50 in assay [1], in assay [2], in assay [20], in [3], in assay [5] and in [6] was > 100 µM (inactive) in each case. Also, the GI50 in [7], in assay [8], in assay [9], in [10], in assay [11] and in assay [12] was > 100 µM (inactive) each time. For the same compound, the GI50 in assay [13], in assay [18], in assay [14], in assay [15], in assay [16] and in [19] was > 100 µM (inactive) each time. Further, the GI50 in assay [17] is > 100 µM (inactive).

In the case of `O=c1[nH]c2ccsc2c(=O)n1COCc1ccccc1`, the GI50 in assay [1], in assay [2], in assay [20], in [3], in [4] and in assay [5] was > 100 µM (inactive) each time. For the same compound, the GI50 in [6], in assay [7], in assay [8], in assay [9], in [10] and in assay [11] was > 100 µM (inactive) in each case. In addition, the GI50 in assay [12], in assay [13], in assay [14], in [15], in [16] and in [19] was > 100 µM (inactive) throughout. Moreover, the GI50 in assay [17] was > 100 µM (inactive).

Consider `CN(C)CCNC(=O)c1cccc2c(NCC(=O)O)c3ccccc3nc12`, for which the GI50 is 14.7 µM (inactive) in assay [1]; 4.08 µM (inactive) in assay [2]; 3.07 µM (inactive) in assay [3]; 17 µM (inactive) in assay [4]; 10.9 µM (inactive) in [5]; 9.98 µM (inactive) in assay [6]. Moreover, the GI50 in [7] was 6.87 µM (inactive); in [8] it was 10.5 µM (inactive); in assay [9], 1.36 µM (inactive); in assay [10], 17.6 µM (inactive); in assay [11], 11.9 µM (inactive); in [12], 11.6 µM (inactive). For the same compound, the GI50 in [13] is 9.82 µM (inactive); in [18], 21.1 µM (inactive); in assay [14], 11.5 µM (inactive); in [15], 25.3 µM (inactive); in assay [16] it was 15.2 µM (inactive); in assay [19], 16.5 µM (inactive). The GI50 in assay [17] was 4.61 µM (inactive).

With `CC1=CC(=O)/C(=C/NC(=S)c2ccncc2)C(=O)O1`, the GI50 in assay [1], in assay [2], in assay [20], in [3], in assay [4] and in assay [5] was > 100 µM (inactive) throughout. In addition, the GI50 in [6] was > 100 µM (inactive); in assay [7], > 100 µM (inactive); in [8] it was > 100 µM (inactive); in [9], > 100 µM (inactive); in assay [10], 61.9 µM (inactive); in assay [11] it was > 100 µM (inactive). For the same compound, the GI50 in assay [12], in assay [13], in assay [18], in assay [14], in [15] and in assay [16] was > 100 µM (inactive) throughout. For the same compound, in [17], the GI50 is > 100 µM (inactive).

Take `COC(=O)C1Cc2c(OC)ccc(OC)c2C(O)C1C(=O)OC` (configuration not stated): the GI50 in assay [1], in [2], in [20], in [3], in [4] and in [5] was > 100 µM (inactive) throughout. Further, the GI50 in [6], in [7], in [8], in [9], in [10] and in assay [11] was > 100 µM (inactive) throughout. Moreover, the GI50 in assay [12], in assay [13], in assay [14], in assay [15], in assay [16] and in [19] was > 100 µM (inactive) each time. The GI50 in assay [17] was > 100 µM (inactive).

As to `C#C/C=C\CCCC/C=C\C#CC#CCCCC#CC#C[C@H](COS(=O)(=O)O)OS(=O)(=O)O`, the GI50 in assay [1], in assay [2], in assay [20], in [3], in [4] and in [5] was > 100 µM (inactive) throughout. Besides, the GI50 in assay [6] is > 100 µM (inactive); in assay [7] it was > 100 µM (inactive); in assay [8], > 100 µM (inactive); in [9], > 100 µM (inactive); in [10], 33 µM (inactive); in assay [11] it was > 100 µM (inactive). The GI50 in assay [12], in assay [13], in [14], in assay [15], in [16] and in [19] was > 100 µM (inactive) in each case. In addition, in assay [17], the GI50 is > 100 µM (inactive).

Turning to `C=C1C(C[C@@H]2O[C@H]3C[C@H]4O[C@@]5(C[C@@H]6O[C@]7(C[C@H](C)[C@@H]8O[C@@H]9CC(C(O)CO)O[C@@H]9C[C@@H]8O7)C[C@H](C)[C@@H]6O5)C[C@H]4O[C@H]3[C@H](C)[C@H]2O)O[C@@H](CC[C@@H]2O[C@@H](CC[C@@]34CC5O[C@H]6C(O[C@H]7CC[C@H](CC(=O)OC)O[C@@H]7[C@@H]6O3)[C@H]5O4)CC2=C)C[C@H]1C` (some centres not stated), the GI50 was 0.00632 µM (active) in assay [1]; 0.000146 µM (active) in assay [2]; 0.000124 µM (active) in assay [4]; < 0.0001 µM (active) in [5]; 0.000211 µM (active) in [6]; < 0.0001 µM (active) in assay [7]. Besides, the GI50 was < 0.0001 µM (active) in assay [8]; < 0.0001 µM (active) in assay [9]; 0.000154 µM (active) in [10]; < 0.0001 µM (active) in assay [11]; 0.000396 µM (active) in assay [12]; 0.998 µM (active) in [13]. The GI50 in assay [18] is 0.000243 µM (active); in assay [14], 0.000184 µM (active); in assay [15], < 0.0001 µM (active); in [16] it was < 0.0001 µM (active); in assay [19], < 0.0001 µM (active); in assay [17], 0.000209 µM (active).
